# Measured values reported in patent US20220185818A1, “PYRROLOHETEROCYCLIC DERIVATIVE, PREPARATION METHOD THEREFOR, AND APPLICATION THEREOF IN MEDICINE” (Jiangsu Hengrui Medicine Co., Ltd., priority 2019, published 2022).
# pIC50: −log10 of the molar value.
# Experiments:
# ERK2 = biological target: T1, ERK2 (Homo sapiens, UniProt P28482); assay: ERK2 enzyme activity test (ADP-Glo Kinase Assay); format: biochemical; conditions: read-out: IC50 value of the inhibition on ERK2 enzyme activity
# T1 construct: purchased R&D 1879-KS-010
# T1 sequence (P28482 2-360 limits assumed): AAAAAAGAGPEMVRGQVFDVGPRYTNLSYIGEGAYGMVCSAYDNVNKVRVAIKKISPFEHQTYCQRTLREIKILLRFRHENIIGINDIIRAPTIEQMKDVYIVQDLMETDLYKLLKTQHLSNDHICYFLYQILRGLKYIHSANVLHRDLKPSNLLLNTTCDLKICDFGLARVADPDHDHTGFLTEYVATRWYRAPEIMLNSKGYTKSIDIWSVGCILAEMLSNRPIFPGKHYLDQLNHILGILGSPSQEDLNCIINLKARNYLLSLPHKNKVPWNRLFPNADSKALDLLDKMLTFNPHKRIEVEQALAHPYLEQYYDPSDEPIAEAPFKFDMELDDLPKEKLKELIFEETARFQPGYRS
# Experimental: (§1) The purpose of this experiment is to detect the inhibitory ability of the compounds on the ERK2 enzyme activity, and evaluate the in vitro activity of the compounds based on the IC50. The ADP-Glo™ Kinase Assay Kit is used in this experiment. Under the action of the enzyme, the substrate is phosphorylated and ADP is produced at the same time. The ADP-Glo reagent is added to remove the unreacted ATP in the reaction system, and the ADP produced by the reaction is detected by the kinase detection reagent. In the presence of the compound, the inhibition rate of the compound is calculated by measuring the signal value.
# (§2) ATP was diluted to 500 μM with the buffer. The compound was dissolved in DMSO to prepare a stock solution with an initial concentration of 20 mM, and then Bravo (SGC120TH34702, Agilent Technologies) was used to dilute the stock solution to desired concentrations. Finally, a 3 μL of a mixed solution of enzyme and substrate, and 1 μL of different concentrations of the compound (the initial concentration is 50 μM, 4-fold dilution) were added to each well of the 384-well plate, and the plate was incubated at 30° C. for 10 minutes, and finally 1 μL of 500 μM ATP solution was added to each well, and the plate was incubated at 30° C. for 2 hours. Then 5 μL of ADP-Glo was added, and the plate was incubated at 30° C. for 40 minutes. Then 10 μL of kinase detection buffer was added, and the plate was incubated at 30° C. for 40 minutes. The 384-well plate was taken out and placed in a microplate reader (BMG labtech, PHERAstar FS), and the chemiluminescence was measured by the microplate reader.
# (§3) Microsoft Excel, Graphpad Prism 5 was used to process and analyze the data.
# ERK1 = biological target: T2, ERK1 (Homo sapiens, UniProt P27361); assay: ERK1 enzyme activity test (ADP-Glo Kinase Assay); format: biochemical; conditions: read-out: IC50 value of the inhibition on ERK1 enzyme activity
# T2 construct: purchased R&D 1879-KS-010
# T2 sequence (P27361 whole entry): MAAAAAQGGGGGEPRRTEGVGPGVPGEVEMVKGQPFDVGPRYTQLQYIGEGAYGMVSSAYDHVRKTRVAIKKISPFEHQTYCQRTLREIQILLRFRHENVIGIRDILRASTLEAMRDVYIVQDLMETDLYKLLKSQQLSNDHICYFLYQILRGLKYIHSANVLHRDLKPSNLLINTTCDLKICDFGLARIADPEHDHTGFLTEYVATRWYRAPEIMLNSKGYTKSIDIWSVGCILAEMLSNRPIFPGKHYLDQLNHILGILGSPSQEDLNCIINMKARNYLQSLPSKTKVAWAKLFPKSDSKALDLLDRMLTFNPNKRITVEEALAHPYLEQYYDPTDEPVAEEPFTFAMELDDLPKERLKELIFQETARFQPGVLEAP
# Experimental: as §1, with “the ERK1” for “the ERK2”, “detected with” for “detected by”
# as §2, with “diluted to 300 μM with” for “diluted to 500 μM with”, “Finally, a […] of” for “Finally, a 3 μL of”, “and 1 μL, of different” for “and 1 μL of different”, “μL of 300 μM ATP” for “μL of 500 μM ATP”, “μL of Kinase detection buffer” for “μL of kinase detection buffer”
# as §3
# Colo205 cells = assay: In vitro proliferation inhibition test on Colo205 tumor cells (CellTiter-Glo); format: cell-based; conditions: Homo sapiens, COLO 205, 72 h; 3 days of culture, CTG; read-out: IC50 value of the inhibition on in vitro Colo205 tumor cell proliferation
# Experimental: The purpose of this experiment is to test the inhibitory activity of the compounds on the proliferation of Colo205 cells (CCL-222, ATCC) in vitro. The cells were treated in vitro with different concentrations of the compounds. After 3 days of culture, the cell proliferation was tested with CTG (CellTiter-Glo® Luminescent Cell Viability Assay, Promega, Catalog No. G7573) reagent, and the in vitro activity of the compounds was evaluated according to the IC50 value.
# In the following, taking the in vitro proliferation inhibition test method of Colo205 cells as an example, the method in the present disclosure for testing the in vitro proliferation inhibitory activity of the compounds of the present disclosure is described. This method is also applicable to, but not limited to, the in vitro proliferation inhibitory activity test on other tumor cells.
# Colo205 cells were digested, centrifuged and then resuspended. The single cell suspension was mixed well, and the density of viable cells was adjusted to 5.0×10^4 cells/ml with cell culture medium (RPMI1640+2% FBS), and 95 μl/well was added to a 96-well cell culture plate. Only 100 μl medium was added to the peripheral wells of the 96-well plate. The culture plate was incubated in an incubator for 24 hours (37° C., 5% CO2).
# The compound was dissolved in DMSO and prepared into a stock solution with an initial concentration of 20 mM. The initial concentration of the small molecule compound was 2 mM, and then 4-fold diluted into 9 points, and the 10th point is DMSO. Another 96-well plate was taken and 90 μl of cell culture medium (RPMI1640+2% FBS) was added to each well, then 10 μl of different concentrations of the test sample was added to each well. The mixture was mixed well, and then 5 μL of different concentrations of the test sample was added to the cell culture plate with duplicate well for each sample. The culture plate was incubated in an incubator for 3 days (37° C., 5% CO2). The 96-well cell culture plate was taken out, 50 μL CTG solution was added to each well, and the plate was incubated for 10 minutes at room temperature. In a microplate reader (BMG labtech, PHERAstar FS), chemiluminescence was measured with the microplate reader.
# as §3
# [1] = Pharmacokinetics assay in mice; format: in vivo; conditions: female, mouse, po, C57 mice, intragastrical administration, 2 mg/kg, plasma; for Vd/F: read-out: Apparent distribution volume Vz/F; for AUC: read-out: Area under curve AUC; for CL/F: read-out: Clearance CLz/F; for half-life: read-out: Half-life T1/2 (converted); for Cmax: read-out: Plasma concentration Cmax; for MRT: read-out: Residence time MRT
# Experimental: Mice were used as test animals. […] The pharmacokinetic behavior of the compounds of the present disclosure was studied in mice, and the pharmacokinetic characteristics were evaluated.
# 2.2 Test Animals Thirty-six C57 mice (female, equally divided into 4 groups) were purchased from Shanghai Jiesijie Laboratory Animal Co., LTD.
# A certain amount of the test compound was weighed and dissolved by the addition of 5% of DMSO and 5% of tween 80. Then 90% of normal saline were added to prepare a 0.1 mg/mL colorless, clear and transparent solution.
# After an overnight fast, C57 mice were intragastrically administered the test compound at a dosage of 2 mg/kg and a volume of 0.2 ml/10 g.
# The mice were intragastrically administered the test compounds. 0.1 ml of blood was taken before the administration and at 0.25, 0.5, 1.0, 2.0, 4.0, 6.0, 8.0, 11.0 and 24.0 hours after the administration. The samples were stored in heparinized tubes, and centrifuged for 10 minutes at 3500 rpm to separate the blood plasma. The plasma samples were stored at −20° C.
# The content of the test compound in the plasma of mice after intragastrical administration of the test compound at different concentrations was determined: 25 μL of […] plasma at each time point after the administration was taken, followed by the addition of 50 μL of the internal standard camptothecin solution (National Institutes for Food and Drug Control of China) and 200 μL of acetonitrile. The resulting solution was vortex-mixed for 5 minutes, and centrifuged for 10 minutes (4000 rpm). 4 μL of the supernatant was taken from the plasma samples for LC/MS/MS analysis.
smiles,measurement,setting,value
"Cn1nccc1Nc1nccc(-c2cc3n(c2)C(=O)N([C@H](CO)c2ccc(Cl)c(F)c2)C3)n1 [Example 20, (S)-2-(1-(3-Fluoro-4-chlorophenyl)-2-hydroxyethyl)-6-(2-((1-methyl-1H-pyrazol-5-yl)amino)pyrimidin-4-yl)-1H-pyrrolo[1,2-c]imidazol-3(2H)-one]",pIC50,ERK2,7.74
same,pIC50,ERK1,7.52
same,pIC50,Colo205 cells,7.17
same,Vd/F,[1],1.41 L/kg
same,AUC,[1],7630 ng·h/mL
same,CL/F,[1],4.37 mL/min/kg
same,half-life,[1],3.73 h
same,Cmax,[1],1540 ng/mL
same,MRT,[1],4.95 h
"Cn1nccc1Nc1nccc(-c2cc3n(c2)C(=O)N([C@H](CO)c2cccc(Cl)c2)C3)n1 [Example 10, (S)-2-(1-(3-Chlorophenyl)-2-hydroxyethyl)-6-(2-((1-methyl-1H-pyrazol-5-yl)amino)pyrimidin-4-yl)-1,2-dihydro-3H-pyrrolo[1,2-c]imidazol-3-one]",pIC50,ERK2,8.15
same,pIC50,ERK1,8.30
same,pIC50,Colo205 cells,7.21
same,Vd/F,[1],3.07 L/kg
same,AUC,[1],3440 ng·h/mL
same,CL/F,[1],9.69 mL/min/kg
same,half-life,[1],3.66 h
same,Cmax,[1],1020 ng/mL
same,MRT,[1],3.47 h
"Cc1cccc([C@@H](CO)N2Cc3cc(-c4ccnc(Nc5ccnn5C)n4)cn3C2=O)c1 [Example 15, (S)-2-(2-Hydroxy-1-(m-tolyl)ethyl)-6-(2-((1-methyl-1H-pyrazol-5-yl)amino)pyrimidin-4-yl)-1H-pyrrolo[1,2-c]imidazol-3(2H)-one]",pIC50,ERK2,8.30
same,pIC50,ERK1,8.30
same,pIC50,Colo205 cells,7.26
same,Vd/F,[1],2.13 L/kg
same,AUC,[1],3700 ng·h/mL
same,CL/F,[1],9 mL/min/kg
same,half-life,[1],2.74 h
same,Cmax,[1],816 ng/mL
same,MRT,[1],3.3 h
